Source: US20250034197A1, “NUCLEOSIDE-DIPHOSPHATE-HEPTOSE COMPOUNDS FOR TREATING CONDITIONS ASSOCIATED WITH ALPK1 ACTIVITY” (PYROTECH (BEIJING) BIOTECHNOLOGY CO., LTD., priority 2021, published 2025)

molecular target: T1, ALPK1 (Homo sapiens, UniProt Q96QP1); assay: NF-κB luciferase reporter assay in 293T cells (cellular assay); format: cell-based
T1 construct: endogenous in cells; host or cells: 293T cells
Experimental: The compounds disclosed herein activate NF-κB through ALPK1-TIFA axis as determined by the NF-κB luciferase reporter and TIFA phosphorylation. For NF-κB luciferase assay, the plasmids (pNL2.2-BII-5RE-Luc), and control vector (pRL-TK) were transfected into 293T cells with the Jetprime reagents (Polyplus). NF-κB luciferase activity was determined using the dual luciferase assay kit (Promega) according to the manufacturer's instructions. TIFA phosphorylation upon the treatment with the compounds disclosed herein described in Table 1, were assayed with immunoblotting. Briefly, for the immunoblotting assay, the 293T cells were seeded in 12-well-plates and cultured for 16 h, and treated with indicated compounds for another 2 hours. Subsequently, the cells were collected and sampled as the regular western-blotting method, immunoblotted by the TIFA phosphorylation specific antibody (ab214815, Abcam).
The EC50 of the compounds disclosed herein were determined by the NF-κB luciferase reporter assay using 293T cells described supra. Compounds with indicated concentrations were added to the culture medium of 293T and the NF-κB luciferase activity was determined using the dual luciferase assay kit (Promega) according to the manufacturer's instructions. […] These chemical entities induce strong activation of the immune regulator NF-κB.

T1 sequence (Q96QP1 whole entry): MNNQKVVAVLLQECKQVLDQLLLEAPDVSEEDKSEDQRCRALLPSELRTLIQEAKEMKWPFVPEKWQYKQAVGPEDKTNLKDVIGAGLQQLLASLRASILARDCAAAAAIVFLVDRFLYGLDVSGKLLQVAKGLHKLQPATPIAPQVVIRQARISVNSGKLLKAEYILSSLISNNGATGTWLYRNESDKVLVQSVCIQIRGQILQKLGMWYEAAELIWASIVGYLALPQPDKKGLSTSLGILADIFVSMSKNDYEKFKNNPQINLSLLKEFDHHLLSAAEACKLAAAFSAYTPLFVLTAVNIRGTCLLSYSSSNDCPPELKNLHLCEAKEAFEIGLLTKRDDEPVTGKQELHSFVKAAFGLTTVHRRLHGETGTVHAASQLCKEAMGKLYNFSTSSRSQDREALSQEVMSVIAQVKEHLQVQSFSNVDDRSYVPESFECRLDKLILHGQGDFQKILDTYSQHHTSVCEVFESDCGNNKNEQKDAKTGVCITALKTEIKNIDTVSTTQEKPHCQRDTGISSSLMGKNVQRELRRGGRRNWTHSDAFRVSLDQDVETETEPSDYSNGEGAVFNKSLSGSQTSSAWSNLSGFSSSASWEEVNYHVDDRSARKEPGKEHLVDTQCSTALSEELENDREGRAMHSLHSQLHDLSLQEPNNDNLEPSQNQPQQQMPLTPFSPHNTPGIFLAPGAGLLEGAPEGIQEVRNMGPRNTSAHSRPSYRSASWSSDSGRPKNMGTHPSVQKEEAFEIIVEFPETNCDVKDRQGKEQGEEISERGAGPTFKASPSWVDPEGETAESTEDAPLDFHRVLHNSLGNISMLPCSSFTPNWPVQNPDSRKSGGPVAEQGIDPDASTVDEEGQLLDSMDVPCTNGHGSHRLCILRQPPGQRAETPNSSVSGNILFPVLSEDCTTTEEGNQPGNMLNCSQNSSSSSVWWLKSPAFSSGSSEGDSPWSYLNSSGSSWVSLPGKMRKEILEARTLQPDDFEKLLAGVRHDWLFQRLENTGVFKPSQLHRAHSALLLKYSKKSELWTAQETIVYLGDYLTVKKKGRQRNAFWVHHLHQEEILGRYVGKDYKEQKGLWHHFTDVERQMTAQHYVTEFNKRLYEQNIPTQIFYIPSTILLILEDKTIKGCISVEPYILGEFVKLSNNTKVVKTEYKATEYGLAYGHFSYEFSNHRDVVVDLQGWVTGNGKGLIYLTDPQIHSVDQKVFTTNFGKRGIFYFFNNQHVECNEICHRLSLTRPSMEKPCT

Row | SMILES | EC50 [nM]
1 | C=C[C@@]1(O)[C@H](O)[C@@H](CO[P@](=O)(S)OP(=O)(O)OC2OC([C@H](COC(C)=O)OC(C)=O)C(OC(C)=O)C(OC(C)=O)C2OC(C)=O)O[C@H]1n1cnc2c(N)ncnc21 (single isomer, unassigned) [Example 31O] | 21
2 | C=C[C@@]1(O)[C@H](O)[C@@H](CO[P@@](=O)(S)OP(=O)(O)OC2OC([C@H](COC(C)=O)OC(C)=O)C(OC(C)=O)C(OC(C)=O)C2OC(C)=O)O[C@H]1n1cnc2c(N)ncnc21 (single isomer, unassigned) [Example 31P] | 7.23
3 | CC(=O)OC[C@H](OC(C)=O)C1OC(OP(=O)(O)O[P@@](=O)(S)OC[C@H]2O[C@@H](n3cnc4c(N)ncnc43)[C@H](N(C)C)[C@@H]2O)C(OC(C)=O)C(OC(C)=O)C1OC(C)=O (single isomer, unassigned) [Example 35G] | 16.9
4 | CC(=O)OC[C@H](OC(C)=O)C1OC(OP(=O)(O)O[P@](=O)(S)OC[C@H]2O[C@@H](n3cnc4c(N)ncnc43)[C@H](N(C)C)[C@@H]2O)C(OC(C)=O)C(OC(C)=O)C1OC(C)=O (single isomer, unassigned) [Example 35H] | 16.7
5 | CN(C)[C@@H]1[C@H](O)[C@@H](CO[P@](=O)(S)OP(=O)(O)OC2OC([C@@H](O)CO)C(O)C(O)C2O)O[C@H]1n1cnc2c(N)ncnc21 (single isomer, unassigned) [Example 35I] | 10.9
6 | CN(C)[C@@H]1[C@H](O)[C@@H](CO[P@@](=O)(S)OP(=O)(O)OC2OC([C@@H](O)CO)C(O)C(O)C2O)O[C@H]1n1cnc2c(N)ncnc21 (single isomer, unassigned) [Example 35J] | 10.3
7 | C=C=C[C@@]1(O)[C@H](O)[C@@H](COP(=O)(S)OP(=O)(O)OC2OC([C@@H](O)CO)C(O)C(O)C2O)O[C@H]1n1cnc2c(N)ncnc21 (single isomer, unassigned) [Example 97D] | > 1000
8 | C=C[C@@]1(OC)[C@H](O)[C@@H](COP(=O)(S)OP(=O)(O)OC2OC([C@H](COC(C)=O)OC(C)=O)C(OC(C)=O)C(OC(C)=O)C2OC(C)=O)O[C@@H]1n1ccc(=O)[nH]c1=O (stereo in doubt) [Example 45E] | 7.77
9 | C#C[C@@]1(F)[C@H](O)[C@@H](COP(=O)(S)OP(=O)(O)OC2OC([C@H](COC(C)=O)OC(C)=O)C(OC(C)=O)C(OC(C)=O)C2OC(C)=O)O[C@H]1n1cnc2c(N)ncnc21 (stereo partly drawn) [Example 21C] | 15.2
10 | C#C[C@@]1(F)[C@H](O)[C@@H](COP(=O)(S)OP(=O)(O)OC2OC([C@H](COC(C)=O)OC(C)=O)C(OC(C)=O)C(OC(C)=O)C2OC(C)=O)O[C@H]1n1ccc(=O)[nH]c1=O (stereo partly drawn) [Example 22C] | 49.1
11 | C#C[C@@]1(O)[C@H](O)[C@@H](COP(=O)(S)OP(=O)(O)OC2OC([C@@H](F)COC(C)=O)C(OC(C)=O)C(OC(C)=O)C2OC(C)=O)O[C@H]1n1cnc2c(N)ncnc21 (stereo partly drawn) [Example 25A] | 244
12 | C#C[C@@]1(O)[C@H](O)[C@@H](COP(=O)(S)OP(=O)(O)OC2OC([C@H](COC(C)=O)OC(C)=O)C(OC(C)=O)C(OC(C)=O)C2OC(C)=O)O[C@H]1n1cnc2c(N)ncnc21 (stereo partly drawn) [Example 25C] | 20
13 | C#C[C@@]1(O)[C@H](O)[C@@H](COP(=O)(S)OP(=O)(O)OC2OC([C@H](COC(C)=O)OC(C)=O)C(OC(C)=O)C(OC(C)=O)C2OC(C)=O)O[C@H]1n1ccc(=O)[nH]c1=O (stereo partly drawn) [Example 26C] | 45.5
14 | C#C[C@]1(O)[C@H](O)[C@@H](COP(=O)(S)OP(=O)(O)OC2OC([C@H](COC(C)=O)OC(C)=O)C(OC(C)=O)C(OC(C)=O)C2OC(C)=O)O[C@H]1n1ccc(=O)[nH]c1=O (stereo partly drawn) [Example 26E] | > 3000
15 | C=C[C@@]1(O)[C@H](O)[C@@H](COP(=O)(S)OP(=O)(O)OC2OC([C@H](COC(=O)CC)OC(C)=O)C(OC(C)=O)C(OC(C)=O)C2OC(C)=O)O[C@H]1n1cnc2c(N)ncnc21 (stereo partly drawn) [Example 31H] | 0.15
16 | C=C[C@@]1(O)[C@H](O)[C@@H](COP(=O)(OP(=O)(O)OC2OC([C@H](COC(C)=O)OC(C)=O)C(OC(C)=O)C(OC(C)=O)C2OC(C)=O)SCOC(=O)C(C)C)O[C@H]1n1cnc2c(N)ncnc21 (stereo partly drawn) [Example 31K] | 57.6
17 | C=C[C@@]1(O)[C@H](O)[C@@H](COP(=O)(OP(=O)(O)OC2OC([C@H](COC(C)=O)OC(C)=O)C(OC(C)=O)C(OC(C)=O)C2OC(C)=O)SCOC(=O)OC(C)C)O[C@H]1n1cnc2c(N)ncnc21 (stereo partly drawn) [Example 31L] | 13.8
18 | C=C[C@@]1(O)[C@H](O)[C@@H](COP(=O)(S)OP(=O)(O)OC2OC([C@H](COC(=O)C(C)C)OC(=O)C(C)C)C(OC(C)=O)C(OC(C)=O)C2OC(C)=O)O[C@H]1n1cnc2c(N)ncnc21 (stereo partly drawn) [Example 31M] | 2.99
19 | CC(=O)OC[C@H](OC(C)=O)C1OC(OP(=O)(O)OP(=O)(S)OC[C@H]2O[C@@H](n3cnc4c(N)ncnc43)[C@H](N)[C@@H]2O)C(OC(C)=O)C(OC(C)=O)C1OC(C)=O (stereo partly drawn) [Example 33C] | 40.2
20 | CC(=O)N[C@@H]1[C@H](O)[C@@H](COP(=O)(S)OP(=O)(O)OC2OC([C@H](COC(C)=O)OC(C)=O)C(OC(C)=O)C(OC(C)=O)C2OC(C)=O)O[C@H]1n1cnc2c(N)ncnc21 (stereo partly drawn) [Example 33E] | 434

Row | SMILES | EC50 [nM]
21 | CN[C@@H]1[C@H](O)[C@@H](COP(=O)(S)OP(=O)(O)OC2OC([C@H](COC(C)=O)OC(C)=O)C(OC(C)=O)C(OC(C)=O)C2OC(C)=O)O[C@H]1n1cnc2c(N)ncnc21 (stereo partly drawn) [Example 34C] | 345
22 | CN[C@@H]1[C@H](O)[C@@H](COP(=O)(S)OP(=O)(O)OC2OC([C@@H](O)CO)C(O)C(O)C2O)O[C@H]1n1cnc2c(N)ncnc21 (stereo partly drawn) [Example 34D] | 167
23 | CN(C)[C@@H]1[C@H](O)[C@@H](COP(=O)(S)OP(=O)(O)OC2OC([C@@H](O)CO)C(O)C(O)C2O)O[C@H]1n1cnc2c(N)ncnc21 (stereo partly drawn) [Example 35D] | 38.7
24 | CC(=O)OC[C@H](F)C1OC(OP(=O)(O)O[P@@](=O)(S)OC[C@H]2O[C@@H](n3cnc4c(N)ncnc43)[C@H](N(C)C)[C@@H]2O)C(OC(C)=O)C(OC(C)=O)C1OC(C)=O (stereo partly drawn) [Example 35K] | 34.2
25 | CC(=O)OC[C@H](OC(C)=O)C1OC(OP(=O)(O)OP(=O)(S)OC[C@H]2O[C@@H](n3cnc4c(N)ncnc43)[C@H](N3CCC3)[C@@H]2O)C(OC(C)=O)C(OC(C)=O)C1OC(C)=O (stereo partly drawn) [Example 36C] | 1620
26 | CC(=O)OC[C@H](OC(C)=O)C1OC(OP(=O)(O)OP(=O)(S)OC[C@H]2O[C@@H](n3cnc4c(N)ncnc43)[C@H](N3CCCC3)[C@@H]2O)C(OC(C)=O)C(OC(C)=O)C1OC(C)=O (stereo partly drawn) [Example 37C] | > 3000
27 | Nc1ncnc2c1ncn2[C@@H]1O[C@H](COP(=O)(S)OP(=O)(O)OC2OC([C@@H](O)CO)C(O)C(O)C2O)[C@@H](O)[C@H]1N1CCCC1 (stereo partly drawn) [Example 37D] | > 3000
28 | CC(=O)OC[C@H](OC(C)=O)C1OC(OP(=O)(O)OP(=O)(S)OC[C@H]2O[C@@H](n3ccc(=O)[nH]c3=O)[C@H](N(C)C)[C@@H]2O)C(OC(C)=O)C(OC(C)=O)C1OC(C)=O (stereo partly drawn) [Example 40C] | 431
29 | CN(C)[C@@H]1[C@H](O)[C@@H](COP(=O)(S)OP(=O)(O)OC2OC([C@@H](O)CO)C(O)C(O)C2O)O[C@H]1n1ccc(=O)[nH]c1=O (stereo partly drawn) [Example 40D] | 713
30 | C=C[C@@]1(OC)[C@H](O)[C@@H](COP(=O)(S)OP(=O)(O)OC2OC([C@H](COC(C)=O)OC(C)=O)C(OC(C)=O)C(OC(C)=O)C2OC(C)=O)O[C@H]1n1ccc(=O)[nH]c1=O (stereo partly drawn) [Example 45C] | 9.58
31 | C#C[C@@]1(OC)[C@H](O)[C@@H](COP(=O)(S)OP(=O)(O)OC2OC([C@H](COC(C)=O)OC(C)=O)C(OC(C)=O)C(OC(C)=O)C2OC(C)=O)O[C@H]1n1ccc(=O)[nH]c1=O (stereo partly drawn) [Example 95C] | 34.8
32 | C=C=C[C@@]1(O)[C@H](O)[C@@H](COP(=O)(S)OP(=O)(O)OC2OC([C@H](COC(C)=O)OC(C)=O)C(OC(C)=O)C(OC(C)=O)C2OC(C)=O)O[C@H]1n1cnc2c(N)ncnc21 (stereo partly drawn) [Example 97C] | 1060
33 | C=C=C[C@@]1(O)[C@H](O)[C@@H](COP(=O)(S)OP(=O)(O)OC2OC([C@H](COC(C)=O)OC(C)=O)C(OC(C)=O)C(OC(C)=O)C2OC(C)=O)O[C@H]1n1ccc(=O)[nH]c1=O (stereo partly drawn) [Example 98C] | 2310
34 | C=C[C@@]1(N=[N+]=[N-])[C@H](O)[C@@H](COP(=O)(S)OP(=O)(O)OC2OC([C@H](COC(C)=O)OC(C)=O)C(OC(C)=O)C(OC(C)=O)C2OC(C)=O)O[C@H]1n1ccc(=O)[nH]c1=O (stereo partly drawn) [Example 108C] | > 3000
35 | C#C[C@@]1(N=[N+]=[N-])[C@H](O)[C@@H](COP(=O)(S)OP(=O)(O)OC2OC([C@H](COC(C)=O)OC(C)=O)C(OC(C)=O)C(OC(C)=O)C2OC(C)=O)O[C@H]1n1ccc(=O)[nH]c1=O (stereo partly drawn) [Example 110C] | > 3000
36 | CC(=O)OC[C@H](OC(C)=O)C1OC(OP(=O)(O)OP(=O)(S)OC[C@H]2O[C@@H](n3ccc(=O)[nH]c3=O)[C@](C)(N)[C@@H]2O)C(OC(C)=O)C(OC(C)=O)C1OC(C)=O (stereo partly drawn) [Example 112C] | 360
37 | C=C[C@@]1(O)[C@H](O)[C@@H](COP(=O)(S)OP(=O)(O)OC2OC([C@H](COC(C)=O)OC(C)=O)C(OC(C)=O)C(OC(C)=O)C2OC(C)=O)O[C@H]1c1coc2c(N)ncnc12 (stereo partly drawn) [Example 125C] | 2.89
38 | C=C[C@@]1(O)[C@H](O)[C@@H](COP(=O)(S)OP(=O)(O)OC2OC([C@H](COC(C)=O)OC(C)=O)C(OC(C)=O)C(OC(C)=O)C2OC(C)=O)O[C@H]1c1csc(C(N)=O)c1N (stereo partly drawn) [Example 126C] | 231
39 | C=C[C@@]1(O)[C@H](O)[C@@H](COP(=O)(S)OP(=O)(O)OC2OC([C@H](COC(C)=O)OC(C)=O)C(OC(C)=O)C(OC(C)=O)C2OC(C)=O)O[C@H]1c1cnn2c(N)ncnc12 (stereo partly drawn) [Example 128C] | 3.62
